The values below come from patent publication US12509457B2, “Bicyclic nitrogen containing heterocycles as inhibitors of salt-induced kinase SIK2” (priority 2019, dated 2025).

Molecules are shown by their SMILES. Like-named read-outs stand apart in the source and are kept apart here.

Broadly, the Ki is the equilibrium dissociation constant of an inhibitor or competing ligand from its target.

What all share (assay type): biochemical
For one test, the target named is SIK2 (Homo sapiens, UniProt Q9H0K1). As to the kind of experiment: SIK2 kinase assay, IMAP fluorescence polarization. For orientation: In fluorescence polarisation assays a small probe gives low polarisation when free and higher when bound to something large.
Sequence of SIK2 (Q9H0K1 whole entry): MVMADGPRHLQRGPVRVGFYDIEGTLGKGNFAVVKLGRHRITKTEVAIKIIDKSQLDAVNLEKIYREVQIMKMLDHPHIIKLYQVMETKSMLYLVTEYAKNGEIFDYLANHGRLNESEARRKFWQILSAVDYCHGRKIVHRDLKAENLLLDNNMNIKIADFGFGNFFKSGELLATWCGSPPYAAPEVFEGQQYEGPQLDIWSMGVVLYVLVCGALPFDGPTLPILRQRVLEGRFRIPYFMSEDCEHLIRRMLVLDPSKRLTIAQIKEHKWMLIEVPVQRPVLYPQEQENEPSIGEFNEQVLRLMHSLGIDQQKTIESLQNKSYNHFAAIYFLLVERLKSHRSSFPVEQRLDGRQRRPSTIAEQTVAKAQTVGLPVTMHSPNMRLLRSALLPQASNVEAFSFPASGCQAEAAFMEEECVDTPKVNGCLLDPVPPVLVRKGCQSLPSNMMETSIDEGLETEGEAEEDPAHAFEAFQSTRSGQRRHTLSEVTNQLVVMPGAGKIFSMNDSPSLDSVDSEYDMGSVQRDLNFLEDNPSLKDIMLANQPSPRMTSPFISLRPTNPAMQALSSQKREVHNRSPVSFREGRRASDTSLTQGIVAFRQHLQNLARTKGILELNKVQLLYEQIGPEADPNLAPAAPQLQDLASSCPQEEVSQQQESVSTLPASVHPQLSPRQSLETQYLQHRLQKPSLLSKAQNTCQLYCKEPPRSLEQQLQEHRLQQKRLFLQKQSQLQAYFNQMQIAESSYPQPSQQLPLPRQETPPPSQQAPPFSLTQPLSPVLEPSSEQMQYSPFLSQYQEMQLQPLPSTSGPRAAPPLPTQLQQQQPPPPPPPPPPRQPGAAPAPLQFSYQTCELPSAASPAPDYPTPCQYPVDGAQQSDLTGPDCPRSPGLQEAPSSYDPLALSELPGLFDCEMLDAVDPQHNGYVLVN
Another test concerns the target SIK1 (Homo sapiens, UniProt P57059). Kind of test: SIK1 kinase assay, IMAP fluorescence polarization.
The next test addresses SIK3 (Homo sapiens, UniProt Q9Y2K2). As to the kind of experiment: SIK3 kinase assay, IMAP fluorescence polarization.
In a further test the target is Abl (Homo sapiens, UniProt P00519). As to the kind of experiment: Abl kinase assay, IMAP fluorescence polarization.
Another test deals with Src (Homo sapiens, UniProt P12931). Kind of test: Src kinase assay, IMAP fluorescence polarization.
Sequence of Src (P12931 whole entry): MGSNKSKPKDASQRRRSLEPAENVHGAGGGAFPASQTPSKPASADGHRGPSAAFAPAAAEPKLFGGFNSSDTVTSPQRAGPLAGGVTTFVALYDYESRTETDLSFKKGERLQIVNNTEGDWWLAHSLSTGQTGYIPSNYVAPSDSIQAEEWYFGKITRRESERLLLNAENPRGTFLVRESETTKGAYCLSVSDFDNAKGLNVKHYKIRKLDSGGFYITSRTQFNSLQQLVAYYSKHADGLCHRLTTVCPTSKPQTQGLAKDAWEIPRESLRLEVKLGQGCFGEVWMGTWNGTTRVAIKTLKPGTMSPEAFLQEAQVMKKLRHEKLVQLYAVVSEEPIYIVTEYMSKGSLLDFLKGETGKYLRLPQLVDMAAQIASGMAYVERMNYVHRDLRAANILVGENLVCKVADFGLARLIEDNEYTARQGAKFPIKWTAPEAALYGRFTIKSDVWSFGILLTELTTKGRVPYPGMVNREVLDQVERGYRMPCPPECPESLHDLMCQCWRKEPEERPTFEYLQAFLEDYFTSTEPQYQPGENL
A further test deals with EPHA2 (Homo sapiens, UniProt P29317). Kind of test: EPHA2 kinase assay, IMAP fluorescence polarization.
Sequence of EPHA2 (P29317 24-976): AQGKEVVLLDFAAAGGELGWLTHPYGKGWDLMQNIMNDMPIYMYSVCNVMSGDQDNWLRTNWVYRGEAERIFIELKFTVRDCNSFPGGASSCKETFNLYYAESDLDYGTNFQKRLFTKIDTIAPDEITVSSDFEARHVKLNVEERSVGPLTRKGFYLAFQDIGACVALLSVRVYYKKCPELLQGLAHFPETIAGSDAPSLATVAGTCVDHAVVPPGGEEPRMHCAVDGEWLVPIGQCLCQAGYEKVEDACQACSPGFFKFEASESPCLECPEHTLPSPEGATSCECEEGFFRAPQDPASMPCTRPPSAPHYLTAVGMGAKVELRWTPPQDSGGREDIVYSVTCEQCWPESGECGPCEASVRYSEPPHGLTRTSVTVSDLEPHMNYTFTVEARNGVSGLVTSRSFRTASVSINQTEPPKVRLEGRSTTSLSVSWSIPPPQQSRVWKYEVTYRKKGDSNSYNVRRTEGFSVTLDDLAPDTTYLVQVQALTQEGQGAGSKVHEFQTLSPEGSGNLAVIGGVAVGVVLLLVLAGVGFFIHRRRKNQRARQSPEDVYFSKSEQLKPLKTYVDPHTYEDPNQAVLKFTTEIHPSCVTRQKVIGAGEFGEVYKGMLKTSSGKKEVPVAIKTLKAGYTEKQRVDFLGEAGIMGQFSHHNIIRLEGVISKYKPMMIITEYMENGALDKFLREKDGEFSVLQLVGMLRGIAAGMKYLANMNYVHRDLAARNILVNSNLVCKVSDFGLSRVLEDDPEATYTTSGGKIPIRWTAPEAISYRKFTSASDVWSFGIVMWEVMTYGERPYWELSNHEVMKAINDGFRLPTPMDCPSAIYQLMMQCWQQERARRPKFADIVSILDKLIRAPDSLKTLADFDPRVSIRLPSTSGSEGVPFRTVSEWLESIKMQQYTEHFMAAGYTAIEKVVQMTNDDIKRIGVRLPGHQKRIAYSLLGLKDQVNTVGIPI
Setting [1] is: 50 or 100 μM ATP, average, read-out: SIK2-AVERAGE Ki.
Setting [2] is: 50 or 100 μM ATP, average, read-out: SIK1-AVERAGE Ki.
[3] abbreviates: 50 or 100 μM ATP, average, read-out: SIK3-AVERAGE Ki.
Setting [4] is: 50 or 100 μM ATP, average, read-out: Abl-AVERAGE Ki.
Where [5] appears, read: 50 or 100 μM ATP, average, read-out: Src-AVERAGE Ki.

Sequence of SIK3 (Q9Y2K2 whole entry): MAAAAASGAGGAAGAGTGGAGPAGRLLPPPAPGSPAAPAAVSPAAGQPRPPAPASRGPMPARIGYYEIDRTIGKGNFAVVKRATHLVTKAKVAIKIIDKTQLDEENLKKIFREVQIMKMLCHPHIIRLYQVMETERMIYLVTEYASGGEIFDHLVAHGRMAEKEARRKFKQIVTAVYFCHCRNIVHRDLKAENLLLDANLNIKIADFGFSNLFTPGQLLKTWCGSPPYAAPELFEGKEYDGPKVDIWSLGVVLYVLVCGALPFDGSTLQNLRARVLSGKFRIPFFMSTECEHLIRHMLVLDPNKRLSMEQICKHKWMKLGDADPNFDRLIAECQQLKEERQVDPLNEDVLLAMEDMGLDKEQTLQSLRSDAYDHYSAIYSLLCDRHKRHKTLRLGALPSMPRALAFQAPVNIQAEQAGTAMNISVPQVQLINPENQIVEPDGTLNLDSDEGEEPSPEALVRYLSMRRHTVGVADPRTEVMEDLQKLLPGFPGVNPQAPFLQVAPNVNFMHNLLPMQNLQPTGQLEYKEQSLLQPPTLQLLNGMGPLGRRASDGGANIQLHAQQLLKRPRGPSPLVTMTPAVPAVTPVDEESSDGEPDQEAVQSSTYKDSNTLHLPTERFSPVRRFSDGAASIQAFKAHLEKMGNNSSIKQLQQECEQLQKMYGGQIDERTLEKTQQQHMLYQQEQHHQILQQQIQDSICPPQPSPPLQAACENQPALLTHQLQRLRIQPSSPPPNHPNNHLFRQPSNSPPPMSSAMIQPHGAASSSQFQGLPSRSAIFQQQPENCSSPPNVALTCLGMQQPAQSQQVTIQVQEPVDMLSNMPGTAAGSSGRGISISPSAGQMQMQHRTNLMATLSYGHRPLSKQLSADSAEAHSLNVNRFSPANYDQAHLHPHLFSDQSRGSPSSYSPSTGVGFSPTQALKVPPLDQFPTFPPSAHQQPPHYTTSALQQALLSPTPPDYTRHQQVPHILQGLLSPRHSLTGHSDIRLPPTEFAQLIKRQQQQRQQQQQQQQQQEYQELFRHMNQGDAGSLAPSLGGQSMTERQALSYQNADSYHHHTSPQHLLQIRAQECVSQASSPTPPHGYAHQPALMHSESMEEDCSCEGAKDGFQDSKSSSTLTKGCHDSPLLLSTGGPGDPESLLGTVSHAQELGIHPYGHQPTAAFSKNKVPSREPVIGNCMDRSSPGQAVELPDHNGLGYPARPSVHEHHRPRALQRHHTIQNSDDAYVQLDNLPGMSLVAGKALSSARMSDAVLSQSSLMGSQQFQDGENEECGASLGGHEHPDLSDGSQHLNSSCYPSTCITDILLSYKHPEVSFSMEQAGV
Sequence of SIK1 (P57059 whole entry): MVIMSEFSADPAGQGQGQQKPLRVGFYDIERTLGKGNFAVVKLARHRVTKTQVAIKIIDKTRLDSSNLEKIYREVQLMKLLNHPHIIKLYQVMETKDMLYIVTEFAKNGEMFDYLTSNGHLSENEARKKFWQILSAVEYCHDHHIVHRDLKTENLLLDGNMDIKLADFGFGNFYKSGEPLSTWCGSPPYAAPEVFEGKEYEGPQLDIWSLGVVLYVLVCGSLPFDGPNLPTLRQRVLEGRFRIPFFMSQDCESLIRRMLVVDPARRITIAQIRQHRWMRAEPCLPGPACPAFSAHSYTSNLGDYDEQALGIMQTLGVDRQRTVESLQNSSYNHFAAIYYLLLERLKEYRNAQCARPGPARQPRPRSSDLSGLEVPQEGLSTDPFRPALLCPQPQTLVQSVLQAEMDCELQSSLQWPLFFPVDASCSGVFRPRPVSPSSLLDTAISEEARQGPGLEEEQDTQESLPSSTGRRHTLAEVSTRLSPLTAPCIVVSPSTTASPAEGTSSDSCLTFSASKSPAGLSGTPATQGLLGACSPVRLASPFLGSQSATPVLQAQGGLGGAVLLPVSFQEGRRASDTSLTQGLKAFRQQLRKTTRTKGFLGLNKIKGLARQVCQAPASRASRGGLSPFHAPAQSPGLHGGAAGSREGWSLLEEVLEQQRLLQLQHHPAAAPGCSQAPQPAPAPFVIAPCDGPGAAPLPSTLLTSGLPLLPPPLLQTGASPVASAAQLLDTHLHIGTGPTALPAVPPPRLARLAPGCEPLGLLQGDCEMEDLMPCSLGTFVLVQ

As to `Cc1cccc(F)c1N1Cc2cnc(N)cc2N([C@H]2CCC[C@@H](N(C)C)C2)C1=O` (relative stereo) [Example 43, 7-amino-1-[cis-3-(dimethylamino)cyclohexyl]-3-(2-fluoro-6-methyl-phenyl)-4H-pyrido[4,3-d]pyrimidin-2-one], the Ki on SIK2 (setting [1]) amounted to 0.00157 µM; on SIK1 (setting [2]), 0.00196 µM; on SIK3 (setting [3]), 0.0134 µM; on Abl (setting [4]), 0.0253 µM; at Src (setting [5]), 0.0713 µM; at EPHA2 (50 or 100 μM ATP, average), 0.0393 µM.

On to `Cc1cccc(F)c1N1Cc2cnc(N(C)C)cc2N([C@H]2CCC[C@@H](N(C)C)C2)C1=O` (relative stereo) [Example 44, 7-(dimethylamino)-1-[cis-3-(dimethylamino)cyclohexyl]-3-(2-fluoro-6-methyl-phenyl)-4H-pyrido[4,3-d]pyrimidin-2-one], for which the Ki on SIK2 (setting [1]) is 0.123 µM; on SIK1 (setting [2]), 0.263 µM; on SIK3 (setting [3]), 1.37 µM; on Src (setting [5]), over 10 µM; at EPHA2 (50 or 100 μM ATP, average), 6.41 µM.

For `Cc1cccc(F)c1N1Cc2cnc(N)cc2N([C@H]2CCC[C@H](N)C2)C1=O` (relative stereo) [Example 55, 7-amino-1-[(trans)-3-aminocyclohexyl]-3-(2-fluoro-6-methyl-phenyl)-4H-pyrido[4,3-d]pyrimidin-2-one], the Ki at SIK2 (setting [1]) amounted to 0.000364 µM; on SIK1 (setting [2]) it was 0.00125 µM; on SIK3 (setting [3]), 0.00471 µM; on Abl (setting [4]), 0.0143 µM; on Src (setting [5]), 0.033 µM; on EPHA2 (50 or 100 μM ATP, average), 0.00716 µM.

For the molecule `Cc1cccc(F)c1N1Cc2cnc(N)cc2N([C@H]2CCC[C@@H](N)C2)C1=O` (relative stereo) [Example 56, 7-amino-1-[(cis)-3-aminocyclohexyl]-3-(2-fluoro-6-methyl-phenyl)-4H-pyrido[4,3-d]pyrimidin-2-one], the Ki at SIK2 (setting [1]) came to 0.00019 µM; at SIK1 (setting [2]), 0.000604 µM; at SIK3 (setting [3]), 0.00146 µM; on Abl (setting [4]), 0.00328 µM; at Src (setting [5]), 0.0189 µM; at EPHA2 (50 or 100 μM ATP, average) it was 0.0423 µM.

Turning to `Cc1cccc(F)c1N1Cc2cnc(N)cc2N(CC2CCNCC2)C1=O` [Example 2, 7-amino-3-(2-fluoro-6-methyl-phenyl)-1-(4-piperidylmethyl)-4H-pyrido[4,3-d]pyrimidin-2-one], the Ki worked out at 0.000163 µM at SIK2 (setting [1]); 0.00094 µM on SIK1 (setting [2]); 0.00055 µM at SIK3 (setting [3]); 0.00234 µM at Abl (setting [4]); 0.0231 µM at Src (setting [5]); 0.0387 µM at EPHA2 (50 or 100 μM ATP, average).

On to `Cc1cccc(F)c1N1Cc2cnc(N)cc2N(C2CNC2)C1=O` [Example 4, 7-amino-1-(azetidin-3-yl)-3-(2-fluoro-6-methyl-phenyl)-4H-pyrido[4,3-d]pyrimidin-2-one], for which the Ki is 0.00408 µM on SIK2 (setting [1]); 0.00792 µM on SIK1 (setting [2]); 0.0353 µM on SIK3 (setting [3]); 0.187 µM on Abl (setting [4]); 0.547 µM at Src (setting [5]); 0.221 µM on EPHA2.

On to `Cc1cccc(F)c1N1Cc2cnc(N)cc2N(C2CN(C)C2)C1=O` [Example 5, 7-amino-3-(2-fluoro-6-methyl-phenyl)-1-(1-methylazetidin-3-yl)-4H-pyrido[4,3-d]pyrimidin-2-one], for which the Ki on SIK2 (setting [1]) was 0.0136 µM; at SIK1 (setting [2]), 0.056 µM; on SIK3 (setting [3]), 0.124 µM; on Abl (setting [4]), over 1 µM; at Src (setting [5]), over 1 µM; on EPHA2 (50 or 100 μM ATP, average), over 1 µM.

Turning to `Cc1cccc(Cl)c1N1Cc2cnc(N)cc2N(C2CNC2)C1=O` [Example 8, 7-amino-1-(azetidin-3-yl)-3-(2-chloro-6-methyl-phenyl)-4H-pyrido[4,3-d]pyrimidin-2-one], the Ki was 0.00449 µM on SIK2 (setting [1]); 0.00776 µM at SIK1 (setting [2]); 0.0456 µM at SIK3 (setting [3]); over 1 µM at Abl (setting [4]); 0.158 µM on Src (setting [5]); 0.149 µM on EPHA2.

As for `Cc1cccc(Cl)c1N1Cc2cnc(N)cc2N(C2CN(C)C2)C1=O` [Example 9, 7-amino-3-(2-chloro-6-methyl-phenyl)-1-(1-methylazetidin-3-yl)-4H-pyrido[4,3-d]pyrimidin-2-one], the Ki is 0.0179 µM on SIK2 (setting [1]); 0.0292 µM at SIK1 (setting [2]); 0.145 µM on SIK3 (setting [3]); over 1 µM at Abl (setting [4]); over 1 µM at Src (setting [5]); 0.175 µM at EPHA2.

Turning to `CNc1cc2c(cn1)CN(c1c(C)cccc1F)C(=O)N2C1CN(C)C1` [Example 10, 3-(2-Fluoro-6-methyl-phenyl)-7-(methylamino)-1-(1-methylazetidin-3-yl)-4H-pyrido[4,3-d]pyrimidin-2-one], the inhibition constant (Ki) at SIK2 (setting [1]) is 0.0148 µM; at SIK1 (setting [2]), 0.0669 µM; on SIK3 (setting [3]), 0.177 µM; at Abl (setting [4]), over 1 µM; at Src (setting [5]) it was over 1 µM; at EPHA2 (50 or 100 μM ATP, average), over 1 µM.

As for `Cc1cccc(F)c1N1Cc2cnc(N)nc2N(CC2CCNCC2)C1=O` [Example 12, 7-amino-3-(2-fluoro-6-methyl-phenyl)-1-(4-piperidylmethyl)-4H-pyrimido[4,5-d]pyrimidin-2-one], the Ki on SIK2 (setting [1]) turned out to be 0.000149 µM; at SIK1 (setting [2]), 0.000822 µM; at SIK3 (setting [3]), 0.000721 µM; on Abl (setting [4]), 0.00312 µM; on Src (setting [5]) it was 0.0393 µM; on EPHA2 (50 or 100 μM ATP, average), 0.0279 µM.

On to `Cc1cccc(F)c1N1Cc2cnc(N)nc2N(C2CNC2)C1=O` [Example 13, 7-Amino-1-(azetidin-3-yl)-3-(2-fluoro-6-methyl-phenyl)-4H-pyrimido[4,5-d]pyrimidin-2-one], for which the Ki on SIK2 (setting [1]) is 0.00177 µM; at SIK1 (setting [2]), 0.00971 µM; on SIK3 (setting [3]), 0.0109 µM; on Abl (setting [4]) it was 0.0364 µM; on Src (setting [5]), 0.4 µM; at EPHA2 (50 or 100 μM ATP, average), 0.371 µM.

Turning to `Cc1cccc(Cl)c1N1Cc2cnc(N)nc2N(C2CNC2)C1=O` [Example 14, 7-amino-1-(azetidin-3-yl)-3-(2-chloro-6-methyl-phenyl)-4H-pyrimido[4,5-d]pyrimidin-2-one], the Ki amounted to 0.00167 µM on SIK2 (setting [1]); 0.0058 µM at SIK1 (setting [2]); 0.00947 µM at SIK3 (setting [3]); 0.0425 µM on Abl (setting [4]); 0.0961 µM on Src (setting [5]); 0.18 µM at EPHA2 (50 or 100 μM ATP, average).

For `Cc1cccc(F)c1N1Cc2cnc(N)nc2N(C2CN(C)C2)C1=O` [Example 21, 7-amino-3-(2-fluoro-6-methyl-phenyl)-1-(1-methylazetidin-3-yl)-4H-pyrimido[4,5-d]pyrimidin-2-one], the Ki at SIK2 (setting [1]) is 0.0137 µM; on SIK1 (setting [2]), 0.0474 µM; at SIK3 (setting [3]), 0.0479 µM; at Abl (setting [4]), over 10 µM; at Src (setting [5]) it was 2.56 µM; on EPHA2 (50 or 100 μM ATP, average) it was 0.388 µM.

With `Cc1cccc(Cl)c1N1Cc2cnc(N)nc2N(C2CN(C)C2)C1=O` [Example 23, 7-amino-3-(2-chloro-6-methyl-phenyl)-1-(1-methylazetidin-3-yl)-4H-pyrimido[4,5-d]pyrimidin-2-one], the Ki at SIK2 (setting [1]) was 0.0142 µM; at SIK1 (setting [2]), 0.0286 µM; on SIK3 (setting [3]) it was 0.0547 µM; on Abl (setting [4]), over 10 µM; on Src (setting [5]), 0.55 µM; on EPHA2 (50 or 100 μM ATP, average), 0.162 µM.

Regarding `Cc1cccc(F)c1N1Cc2cnc(N)nc2N([C@H]2CCN(C)C2)C1=O` [Example 30, 7-amino-3-(2-fluoro-6-methyl-phenyl)-1-[(3S)-1-methylpyrrolidin-3-yl]-4H-pyrimido[4,5-d]pyrimidin-2-one], the Ki at SIK2 (setting [1]) was 0.0038 µM; on SIK1 (setting [2]), 0.012 µM; at SIK3 (setting [3]) it was 0.0645 µM; on Abl (setting [4]), 0.444 µM; on Src (setting [5]) it was 1.88 µM; on EPHA2, 0.0785 µM.

Take `Cc1cccc(F)c1N1Cc2cnc(N)nc2N([C@@H]2CCN(C)C2)C1=O` [Example 31, 7-amino-3-(2-fluoro-6-methyl-phenyl)-1-[(3R)-1-methylpyrrolidin-3-yl]-4H-pyrimido[4,5-d]pyrimidin-2-one]: the Ki at SIK2 (setting [1]) was 0.00479 µM; at SIK1 (setting [2]), 0.00828 µM; on SIK3 (setting [3]), 0.0626 µM; at Abl (setting [4]), 0.522 µM; at Src (setting [5]) it was over 10 µM; at EPHA2, 0.228 µM.

On to `Cc1cccc(F)c1N1Cc2cnc(N)nc2N([C@@H]2CCCN(C)CC2)C1=O` [Example 34, 7-amino-3-(2-fluoro-6-methyl-phenyl)-1[(4R)-1-methylazepan-4-yl]-4H-pyrimido[4,5-d]pyrimidin-2-one], for which the Ki at SIK2 (setting [1]) was 0.000374 µM; at SIK1 (setting [2]) it was 0.000733 µM; on SIK3 (setting [3]), 0.00148 µM; on Abl (setting [4]) it was 0.0336 µM; at Src (setting [5]), 0.138 µM; on EPHA2, 0.0296 µM.

For the molecule `Cc1cccc(F)c1N1Cc2cnc(N)nc2N([C@H]2CCCN(C)CC2)C1=O` [Example 35, 7-amino-3-(2-fluoro-6-methyl-phenyl)-1-[(4S)-1-methylazepan-4-yl]-4H-pyrimido[4,5-d]pyrimidin-2-one], the Ki at SIK2 (setting [1]) turned out to be 0.000383 µM; at SIK1 (setting [2]), 0.00117 µM; on SIK3 (setting [3]) it was 0.00212 µM; at Abl (setting [4]) it was 0.105 µM; at Src (setting [5]) it was 0.287 µM; at EPHA2 it was 0.0387 µM.

`Cc1cccc(Cl)c1N1Cc2cnccc2N(C2CCNCC2)C1=O` [Example 66, 3-(2-chloro-6-methyl-phenyl)-1-(4-piperidyl)-4H-pyrido[4,3-d]pyrimidin-2-one]: the Ki at SIK2 turned out to be 0.0132 µM; at SIK1, 0.0102 µM; at SIK3 it was 0.0988 µM; at Abl, 0.621 µM; on Src it was 0.436 µM.
